Row | Compound | melting point
1 | COC(=O)CNc1ccccc1C#N | 70 to 78 °C
2 | CCN(C(=O)c1ccccc1C(c1ccc(O)cc1)c1ccc(O)cc1)c1cccc(C)c1 | 218 to 220 °C
3 | Cc1c(-c2ccc(OC(F)(F)F)cc2)[nH]c2ccc(OCc3ccccc3)cc12 | 127 to 128 °C
4 | NC(=O)C1=CN(CCC(=O)NCCc2ccccc2)C=CC1 | 121 to 123 °C
5 | CCOC(=O)C1Cc2ccc(OC)c(Cl)c2O1 (stereo unspecified) | 108 to 110 °C
6 | COc1ccc(-c2cc(C(N)=O)c(=O)n(CC3CCCC3)n2)cc1 | 182 to 183 °C
7 | CC(=O)n1ccc2c(C=O)ccc(OCc3ccccc3)c21 | 77 to 78 °C
8 | Cc1cc(O)cc(C)c1Sc1ccccn1 | 190 °C
9 | CCN(c1cc(Cl)c(Cl)cc1Cl)C(C(=O)O)c1ccccc1OC (stereo unspecified) | 92.7 °C
10 | FC(F)(F)Sc1cc(-c2ccccc2)c(-c2ccccc2)[nH]1 | 58 to 59 °C
11 | COC(=O)c1ccc(-c2ccc(-c3ccccc3)c(OS(=O)(=O)C(F)(F)F)c2)cc1 | 95 °C
12 | O=C(O)c1cccnc1NCCSCc1nccs1 | 133 to 134 °C
13 | N#Cc1nn(-c2c(Cl)cc(-c3c(F)c(F)nc(F)c3F)cc2Cl)c(N)c1SC(F)(F)F | 100 to 104 °C
14 | CCOC(=O)c1ccc(-n2ccnc2)cc1 | 100 °C
15 | CS(=O)(=O)Nc1ccc(CCOS(C)(=O)=O)cc1 | 134 to 136 °C
16 | OCc1ccc(-c2ccc(OCc3ccccc3)cc2)cc1 | 194 to 195 °C
17 | C[C@H](NC(=O)Cc1cc(F)cc(F)c1)C(=O)N[C@@H]1C(=O)Nc2ccccc2S[C@@H]1c1ccc(Br)s1 | 139 to 140 °C
18 | O=C(O)c1cccc(-c2ncn(-c3ccc(N4CCCC4=O)cc3)n2)c1 | 270 to 273 °C
19 | Cc1cc(C)c2nsnc2c1[N+](=O)[O-] | 105 to 106 °C
20 | CN(c1ccc(S(C)(=O)=O)cc1)S(=O)(=O)c1cccc(NC(=O)c2ccc(Br)cc2)c1 | 216 to 218 °C
21 | CN1N=C(c2cccc(F)c2)c2cc(Cl)ccc2CS1(=O)=O | 172 to 173 °C
22 | COc1ccc(OCc2ccccc2)c(C(=O)OCc2ccccc2)c1 | 93 to 94.5 °C
23 | CC(C)c1ccc(-c2c(Cl)c(CCl)nc3sc4c(c23)CCN(Cc2ccccc2)C4)cc1 | 190 to 192 °C
24 | Cc1oc(-c2ccccc2F)nc1CCOc1ccc(CN(O)C(N)=O)cc1 | 151 to 152 °C

Row | Compound | melting point
25 | CC1=C(CC2=NCCN2C)CCc2ccccc21 | 162 to 164 °C
26 | Cc1[nH]c(C(=O)Nc2ccc3ncsc3c2)c(C)c1-c1nc2ccc(C(=O)c3ccccc3)cc2[nH]1 | 155 to 157 °C
27 | CN1Cc2c(C(=O)OC(C)(C)C)ncn2-c2ccccc2C1=S | 207 to 208 °C
28 | CC1(C)c2c(Cl)cccc2S(=O)(=O)N1CC=O | 156 °C
29 | CCN1c2ncc(C3(c4ccccc4)CO3)cc2C(=O)N(C)c2ccc(Cl)nc21 (stereo unspecified) | 105 to 107 °C
30 | CC(C)c1ncc(CN2C(=O)C3(COc4cc5c(cc43)OCO5)c3ccccc32)o1 (stereo unspecified) | 75 to 77 °C
31 | CC(C)N(CC(=O)c1ccc(F)cc1)c1ccccc1 | 78 to 81 °C
32 | OC(CCc1cccnc1)COc1ccc(-c2ccccc2)cc1 (stereo unspecified) | 83 to 86 °C
33 | NC(=O)N(O)CCNC(=O)c1cccc(S(=O)(=O)c2ccc(Cl)cc2)c1 | 183 to 186 °C
34 | CCOC(=O)N=P(c1ccccc1)(c1ccccc1)c1ccccc1OC | 80 to 83 °C
35 | COC(=O)C1=C(C)NC(C)=C(C(=O)OCCCCCCS(=O)c2nc(C)cs2)C1c1cccc([N+](=O)[O-])c1 (stereo unspecified) | 81 to 83 °C
36 | CCCCc1c(CO)ccc2ccc(OC)cc12 | 52 to 53 °C
37 | O=C([C@H]1CCc2cc(Cl)c(Cl)cc21)N1CCSC[C@H]1CN1CCCC1 | 123 to 124 °C
38 | COC(=O)C(CC(=O)c1ccccc1)SC(C)=O (stereo unspecified) | 53.5 to 54 °C
39 | O=C(Nc1ccc(-c2ncc(-c3ccc(NC(=O)C4CCCCCC4)cc3)[nH]2)cc1)c1ccc(F)cc1 | 314 to 316 °C
40 | CC(=O)Nc1ccc(Nc2c(CC3CC4C=CC3C4)cc(C(=O)O)cc2S(=O)(=O)NC(C)=O)cc1 (stereo unspecified) | 270 °C
41 | CCOC(=O)c1ccc(CCNS(=O)(=O)C=Cc2ccccc2)cc1 | 59 to 61 °C
42 | COc1ccc(S(=O)(=O)Nc2cccnc2Nc2ccc(OS(=O)(=O)c3ccc(OC)cc3)cc2)cc1 | 122 to 123 °C
43 | S=c1nc(-c2cc(Cl)cc(Cl)c2)[nH]n1Cc1ccccc1 | 205 to 212 °C
44 | Cc1c(-c2cccc(O)c2)sc(C#N)c1-c1ccc(O)cc1 | 240 to 241 °C
45 | C=CCOC1=NC(OCC)=NS(=O)(=O)N1C | 56 to 60 °C
46 | CC(=Cc1ccsc1Cl)[N+](=O)[O-] | 73 to 76 °C
47 | COc1cc(C(=O)c2ccc(C(F)(F)F)cc2)cc([N+](=O)[O-])c1OC | 115 °C
48 | COc1ccc(CNc2nc(N3CCC[C@H]3CO)ncc2C(=O)O)cc1Cl | 205 to 208 °C

Row | Compound | melting point
49 | CC(C)n1c(C=O)c(-c2ccc(F)cc2)c(-c2ccc(F)cc2)c1C(=O)O | 228 to 230 °C
50 | CCOc1nc(NCc2ccc(C)o2)nc(Nc2ccc(O)cc2)n1 | 40 to 42 °C
51 | CCc1oc(C(O)(C(F)(F)F)C(F)(F)F)nc1-c1ccc(S(C)(=O)=O)cc1 | 92 to 93 °C
52 | NC(=O)CN1CCN(c2ccc3c(c2)N2CCN=C2C(c2ccccc2)=[N+]3[O-])CC1 | 225 to 227 °C
53 | Cn1cnc2nc(-c3cc(C(C)(C)C)c(O)c(C(C)(C)C)c3)nn2c1=S | > 300 °C
54 | CS(=O)(=O)Oc1ccc2c(=O)c(C(=O)O)cn3c2c1CCC3 | 270 to 275 °C
55 | Cn1nnc2cc(C(O)c3ccccc3)ccc21 (stereo unspecified) | 129 °C
56 | COC(=O)NN=Cc1ccc(Oc2ccc(F)cc2)cc1 | 109 to 111 °C
57 | O=C(c1cccc(Nc2nc(-c3ccccc3)nc3ccccc23)c1)N1CCN(c2ncc(Cc3ccccc3)cn2)CC1 | 214 to 215 °C
58 | CC=CC(=O)Nc1ccc2c(Nc3cccc(Br)c3)ncnc2c1 | > 250 °C
59 | COc1ccc(S(=O)(=O)Nc2ccccc2NC(=O)c2cc(C)nc(Cl)c2)cc1 | 150 to 151 °C
60 | CS(=O)(=O)OCCCc1cccc(OCc2coc(/C=C/c3ccccc3)n2)c1 | 75 to 76 °C
61 | CCCCS(=O)(=O)NC1Cc2ccc(C(=O)CCC(=O)O)cc2C1 (stereo unspecified) | 138 to 140 °C
62 | CCOc1ccc(CC(CN2CC(=O)OC(=O)C2)N(CCN2CC(=O)OC(=O)C2)CC(=O)O)cc1 (stereo unspecified) | 172 to 174 °C
63 | O=c1[nH]ncc2cc(Cl)ccc12 | 272 to 273 °C
64 | CON=C(C(=O)OC)c1cc(Cl)nc(NC=O)n1 | 165 to 172 °C
65 | Cc1cc2c(/C=C/C(=O)OCc3ccccc3)cccc2[nH]1 | 135 to 136 °C
66 | CCOC(=O)C1=C(NC(=O)Nc2cc(C(=O)OC(C)C)c(Br)cc2Cl)CCC1 | 131 to 132 °C
67 | CC(C)=CCC(C(=O)O)C(=O)O | 96 to 97 °C
68 | CCOP(=O)(COCCC(CO)On1cnc2c(N)ncnc21)OCC (stereo unspecified) | 86 to 88 °C
69 | CN(c1ccc(OCc2ccc(OC(F)(F)F)cc2)cc1)C1CCN(c2ccc(OC[C@H]3CCn4cc([N+](=O)[O-])nc4O3)cc2)CC1 | 142 to 144 °C
70 | Clc1ccc(-c2nc(COc3ccc(CCCn4ccnc4)cc3)co2)s1 | 77 to 78 °C
71 | CN(c1cc2ccccc2s1)c1nc(=O)c2cccnc2s1 | 220 to 221 °C
